Measured values reported in PMC11012124, “Synthesis of Novel Triazine-Based Chalcones and 8,9-dihydro-7H-pyrimido[4,5-b][1,4]diazepines as Potential Leads in the Search of Anticancer, Antibacterial and Antifungal Agents” (International Journal of Molecular Sciences, 2024).

Assays:
[1] = system: MALME-3M; assay: cells; details: Homo sapiens, 48 h; for CC50: read-out: LC50
[2] = system: 60 cancer cell lines; assay: NCI-60 one-dose screen (10 μM); format: cell-based; details: Homo sapiens; one dose of 10 μM, mean over 60 cancer cell lines; read-out: Mean Growth Percent (MGP)
Excerpt: Additionally, the mean of the growth percentages (MGP) of each compound against all the 60 cancer cell lines is also reported, which is used as one of the selection criteria to continue with tests at five concentration doses.

[3] = system: TK-10; assay: cells; details: Homo sapiens, TK-10, 48 h; for CC50: read-out: LC50
[4] = system: MDA-MB-435; assay: cells; details: Homo sapiens, MDA-MB-435, 48 h; for CC50: read-out: LC50
[5] = system: RXF 393; assay: cells; details: Homo sapiens, RXF 393, 48 h; for CC50: read-out: LC50
[6] = system: OVCAR-4; assay: cells; details: Homo sapiens, OVCAR-4, 48 h; for CC50: read-out: LC50
[7] = system: SK-OV-3; assay: cells; details: Homo sapiens, SK-OV-3, 48 h; for CC50: read-out: LC50
[8] = system: NCI-H226; assay: cells; details: Homo sapiens, NCI-H226, 48 h; for CC50: read-out: LC50
[9] = system: OVCAR-8; assay: cells; details: Homo sapiens, OVCAR-8, 48 h; for CC50: read-out: LC50
[10] = system: HCT-15; assay: cells; details: Homo sapiens, HCT-15, 48 h; for CC50: read-out: LC50
[11] = system: SW-620; assay: cells; details: Homo sapiens, SW-620, 48 h; for CC50: read-out: LC50
[12] = system: BT-549; assay: cells; details: Homo sapiens, BT-549, 48 h; for CC50: read-out: LC50
[13] = system: RPMI-8226; assay: cells; details: Homo sapiens, RPMI-8226, 48 h; for CC50: read-out: LC50
[14] = Hemolytic activity, spectrophotometric; format: cell-based, human; details: human, human red blood cells (huRBC), 5% hematocrit, 200 μg/mL, 37 °C
[15] = system: SR; assay: cells; details: Homo sapiens, 48 h; for CC50: read-out: LC50
[16] = system: NCI-H23; assay: cells; details: Homo sapiens, NCI-H23, 48 h; for CC50: read-out: LC50
[17] = system: MCF7; assay: cells; details: Homo sapiens, MCF7, 48 h; for CC50: read-out: LC50
[18] = system: ACHN; assay: cells; details: Homo sapiens, 48 h; for CC50: read-out: LC50
[19] = system: HOP-62; assay: cells; details: Homo sapiens, HOP-62, 48 h; for CC50: read-out: LC50
[20] = system: OVCAR-5; assay: cells; details: Homo sapiens, OVCAR-5, 48 h; for CC50: read-out: LC50
[21] = system: IGROV1; assay: cells; details: Homo sapiens, IGROV-1, 48 h; for CC50: read-out: LC50
[22] = system: DU-145; assay: cells; details: Homo sapiens, DU-145, 48 h; for CC50: read-out: LC50
[23] = system: NCI-H322M; assay: cells; details: Homo sapiens, 48 h; for CC50: read-out: LC50
[24] = system: SF-295; assay: cells; details: Homo sapiens, SF-295, 48 h; for CC50: read-out: LC50
[25] = system: NCI/ADR-RES; assay: cells; details: Homo sapiens, 48 h

## CN(C)c1nc(NCCNS(=O)(=O)c2ccc(C(=O)/C=C/c3ccccc3)cc2)nc(N2CCOCC2)n1 [23a]
[1]
  GI50: 15.2 µM
  CC50: 56.5 µM
[2]
  activity at 10 µM: 61.9%
[3]
  GI50: 16.4 µM
  CC50: 55.5 µM
[4]
  GI50: 14.7 µM
  CC50: 54.4 µM
[5]
  GI50: 7.87 µM
  CC50: 55.8 µM
[6]
  GI50: 14.3 µM
  CC50: 54 µM
[7]
  GI50: 15.6 µM
  CC50: 56.8 µM
[8]
  GI50: 13.5 µM
  CC50: 74.2 µM
[9]
  GI50: 16.4 µM
  CC50: 61.7 µM
[10]
  GI50: 5.21 µM
  CC50: 61.7 µM
[11]
  GI50: 3.41 µM
  CC50: 42.7 µM
[12]
  GI50: 11.2 µM
  CC50: 50 µM
[13]
  GI50: 3.25 µM
  CC50: > 100 µM
[14]
  hemolysis at 24 h, 200 µg/mL: 0.7%
[15]
  GI50: 3.2 µM
  CC50: > 100 µM
[16]
  GI50: 16 µM
  CC50: 58 µM
[17]
  GI50: 3.49 µM
  CC50: 62 µM
[18]
  GI50: 18.2 µM
  CC50: 72.2 µM
[19]
  GI50: 16.4 µM
  CC50: 62.7 µM
[20]
  GI50: 12.1 µM
  CC50: 55.9 µM
[21]
  GI50: 15.3 µM
  CC50: 66.4 µM
[22]
  GI50: 15.1 µM
  CC50: 53.3 µM
[23]
  GI50: 14.8 µM
  CC50: 56.5 µM
[24]
  GI50: 15.6 µM
  CC50: 59.5 µM

## CN(C)c1nc(NCCNS(=O)(=O)c2ccc(C(=O)/C=C/c3ccc(C(F)(F)F)cc3)cc2)nc(N2CCOCC2)n1 [23g]
[1]
  GI50: 14.4 µM
  CC50: 53 µM
[2]
  activity at 10 µM: -14.8%
[3]
  GI50: 15.5 µM
  CC50: 56 µM
[4]
  GI50: 10.3 µM
  CC50: 51.1 µM
[5]
  GI50: 11.5 µM
  CC50: 49 µM
[6]
  GI50: 14.8 µM
  CC50: 56.5 µM
[7]
  GI50: 14.7 µM
  CC50: 59 µM
[8]
  GI50: 16.1 µM
  CC50: 78.9 µM
[9]
  GI50: 14.4 µM
  CC50: 54.9 µM
[10]
  GI50: 1.86 µM
  CC50: 7.07 µM
[11]
  GI50: 3.3 µM
  CC50: 36.5 µM
[12]
  GI50: 15.6 µM
  CC50: 54.9 µM
[13]
  GI50: 1.77 µM
  CC50: > 100 µM
[15]
  GI50: 6.31 µM
  CC50: > 100 µM
[16]
  GI50: 13 µM
  CC50: 52.6 µM
[17]
  GI50: 1.68 µM
  CC50: 6.63 µM
[18]
  GI50: 8.6 µM
  CC50: 45.5 µM
[19]
  GI50: 17 µM
  CC50: 61.3 µM
[20]
  GI50: 14.5 µM
  CC50: 53 µM
[21]
  GI50: 1.77 µM
  CC50: 6.97 µM
[22]
  GI50: 15.4 µM
  CC50: 54.5 µM
[23]
  GI50: 14.2 µM
  CC50: 52.1 µM
[24]
  GI50: 8.11 µM
  CC50: 45.4 µM

## Nc1nc(N)c2c(n1)NC(c1ccc(C(F)(F)F)cc1)CC(c1ccc(Nc3nc(NCCO)nc(Nc4ccc(Cl)cc4)n3)cc1)=N2 (stereo not shown) [33g]
[1]
  GI50: 1.74 µM
[2]
  activity at 10 µM: -44.8%
[3]
  GI50: 1.78 µM
  CC50: 5.63 µM
[4]
  GI50: 1.4 µM
  CC50: 5.3 µM
[5]
  GI50: 1.14 µM
  CC50: 5.48 µM
[6]
  GI50: 2.23 µM
  CC50: > 100 µM
[7]
  GI50: 1.83 µM
  CC50: 6.52 µM
[8]
  GI50: 1.84 µM
  CC50: 8.31 µM
[9]
  GI50: 1.5 µM
  CC50: 5.75 µM
[10]
  GI50: 1.15 µM
  CC50: 5.83 µM
[11]
  GI50: 1.6 µM
  CC50: 7.04 µM
[12]
  GI50: 1.57 µM
  CC50: 6.34 µM
[13]
  GI50: 1.51 µM
  CC50: > 100 µM
[14]
  hemolysis at 24 h, 200 µg/mL: 22%
[15]
  GI50: 1.46 µM
  CC50: > 100 µM
[17]
  GI50: 1.26 µM
[18]
  GI50: 1.5 µM
  CC50: 5.31 µM
[19]
  GI50: 1.63 µM
  CC50: 6.14 µM
[20]
  GI50: 1.6 µM
  CC50: 5.64 µM
[25]
  GI50: 1.95 µM
[21]
  GI50: 1.37 µM
[22]
  GI50: 1.51 µM
  CC50: 5.33 µM
[23]
  GI50: 1.66 µM
  CC50: 5.63 µM
[24]
  GI50: 1.79 µM
  CC50: 6.14 µM
